# Assay results published in patent US11697648B2, “Fused pyrimidine pyridinone compounds as JAK inhibitors” (THERAVANCE BIOPHARMA R&D IP, LLC, priority 2019, dated 2023).
# Biological target: JAK1 (Homo sapiens (Human), UniProt P23458)
# Experiment: Biochemical JAK1 kinase assay (LanthaScreen)
# Conditions: not given
# How it was run: (§1)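 GST-JAK + GFP-STAT1 peptide, HEPES pH 7.5/MgCl2/EGTA/Brij-35 buffer; cpd preincubation 1 h RT; ATP start, 1 h RT; stop with 10 mM EDTA + 2 nM Tb-anti-pSTAT1; TR-FRET 520/495. 4-parameter IC50 → pKi (Cheng-Prusoff).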
# Sequence of JAK1 (P23458 whole entry): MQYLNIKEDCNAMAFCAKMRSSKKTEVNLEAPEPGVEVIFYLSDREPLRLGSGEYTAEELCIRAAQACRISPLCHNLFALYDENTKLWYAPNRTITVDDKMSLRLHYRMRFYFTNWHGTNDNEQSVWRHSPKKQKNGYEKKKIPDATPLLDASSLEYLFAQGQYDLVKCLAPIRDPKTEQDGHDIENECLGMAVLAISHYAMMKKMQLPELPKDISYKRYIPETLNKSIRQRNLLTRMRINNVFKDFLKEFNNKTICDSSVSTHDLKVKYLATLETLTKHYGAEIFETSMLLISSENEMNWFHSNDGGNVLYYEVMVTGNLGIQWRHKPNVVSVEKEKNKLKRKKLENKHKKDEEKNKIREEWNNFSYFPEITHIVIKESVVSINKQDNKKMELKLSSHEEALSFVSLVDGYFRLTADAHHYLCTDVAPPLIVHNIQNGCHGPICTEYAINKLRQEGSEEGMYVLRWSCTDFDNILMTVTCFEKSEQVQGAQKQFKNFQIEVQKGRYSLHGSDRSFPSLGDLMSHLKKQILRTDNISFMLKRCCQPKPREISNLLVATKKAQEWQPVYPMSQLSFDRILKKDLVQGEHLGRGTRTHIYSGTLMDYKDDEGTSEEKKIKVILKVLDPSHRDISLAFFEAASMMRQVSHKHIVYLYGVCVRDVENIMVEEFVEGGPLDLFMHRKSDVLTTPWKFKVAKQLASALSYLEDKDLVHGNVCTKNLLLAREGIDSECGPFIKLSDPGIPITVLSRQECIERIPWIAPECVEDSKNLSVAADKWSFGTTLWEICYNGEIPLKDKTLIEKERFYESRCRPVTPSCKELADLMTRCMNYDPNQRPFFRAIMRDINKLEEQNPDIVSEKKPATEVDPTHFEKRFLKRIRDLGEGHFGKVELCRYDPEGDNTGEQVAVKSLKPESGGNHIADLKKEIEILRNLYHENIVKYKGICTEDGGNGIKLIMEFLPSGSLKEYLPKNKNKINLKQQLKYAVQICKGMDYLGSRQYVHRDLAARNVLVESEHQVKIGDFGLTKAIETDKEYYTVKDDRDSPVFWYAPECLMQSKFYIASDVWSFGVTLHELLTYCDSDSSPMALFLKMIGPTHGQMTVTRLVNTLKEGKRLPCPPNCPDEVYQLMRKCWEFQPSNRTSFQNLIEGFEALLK
row,Compound,JAK 1 (pKi)
1,C=CC(=O)N1CC(CCn2c(=O)ccc3cnc(Nc4ccc(N5CCN(S(=O)(=O)CC#N)CC5)cc4)nc32)C1 [Example 101],E (E represents a pKi value of 7 or below (Ki of 100 nM or above))
2,C=CC(=O)N1CC(CCn2c(=O)ccc3cnc(Nc4ccc(N5CCN(C(=O)[C@@H](C)O)CC5)cc4)nc32)C1 [Example 105],E (E represents a pKi value of 7 or below (Ki of 100 nM or above))
3,C=CC(=O)N1CC(CCn2c(=O)ccc3cnc(Nc4ccc(N5CCN(C(=O)[C@H](C)O)CC5)cc4)nc32)C1 [Example 106],E (E represents a pKi value of 7 or below (Ki of 100 nM or above))
4,C=CC(=O)N1CC(CCn2c(=O)ccc3cnc(Nc4cccc(N5CCN(C(=O)COC)CC5)c4)nc32)C1 [Example 108],E (E represents a pKi value of 7 or below (Ki of 100 nM or above))
5,C=CC(=O)N1CC(CCn2c(=O)ccc3cnc(Nc4ccc(N5CCN(C(=O)C(F)(F)F)CC5)cc4)nc32)C1 [Example 109],D (D represents a pKi value between 7 and 8 (Ki between 100 nM and 10 nM))
6,C=CC(=O)N1CC(CCn2c(=O)ccc3cnc(Nc4ccc(N5CCN(CCOCC)CC5)cc4)nc32)C1 [Example 117],E (E represents a pKi value of 7 or below (Ki of 100 nM or above))

# Biological target: JAK2 (Homo sapiens (Human), UniProt O60674)
# Experiment: Biochemical JAK2 kinase assay (LanthaScreen)
# Conditions: not given
# How it was run: as §1
# Sequence of JAK2 (O60674 whole entry): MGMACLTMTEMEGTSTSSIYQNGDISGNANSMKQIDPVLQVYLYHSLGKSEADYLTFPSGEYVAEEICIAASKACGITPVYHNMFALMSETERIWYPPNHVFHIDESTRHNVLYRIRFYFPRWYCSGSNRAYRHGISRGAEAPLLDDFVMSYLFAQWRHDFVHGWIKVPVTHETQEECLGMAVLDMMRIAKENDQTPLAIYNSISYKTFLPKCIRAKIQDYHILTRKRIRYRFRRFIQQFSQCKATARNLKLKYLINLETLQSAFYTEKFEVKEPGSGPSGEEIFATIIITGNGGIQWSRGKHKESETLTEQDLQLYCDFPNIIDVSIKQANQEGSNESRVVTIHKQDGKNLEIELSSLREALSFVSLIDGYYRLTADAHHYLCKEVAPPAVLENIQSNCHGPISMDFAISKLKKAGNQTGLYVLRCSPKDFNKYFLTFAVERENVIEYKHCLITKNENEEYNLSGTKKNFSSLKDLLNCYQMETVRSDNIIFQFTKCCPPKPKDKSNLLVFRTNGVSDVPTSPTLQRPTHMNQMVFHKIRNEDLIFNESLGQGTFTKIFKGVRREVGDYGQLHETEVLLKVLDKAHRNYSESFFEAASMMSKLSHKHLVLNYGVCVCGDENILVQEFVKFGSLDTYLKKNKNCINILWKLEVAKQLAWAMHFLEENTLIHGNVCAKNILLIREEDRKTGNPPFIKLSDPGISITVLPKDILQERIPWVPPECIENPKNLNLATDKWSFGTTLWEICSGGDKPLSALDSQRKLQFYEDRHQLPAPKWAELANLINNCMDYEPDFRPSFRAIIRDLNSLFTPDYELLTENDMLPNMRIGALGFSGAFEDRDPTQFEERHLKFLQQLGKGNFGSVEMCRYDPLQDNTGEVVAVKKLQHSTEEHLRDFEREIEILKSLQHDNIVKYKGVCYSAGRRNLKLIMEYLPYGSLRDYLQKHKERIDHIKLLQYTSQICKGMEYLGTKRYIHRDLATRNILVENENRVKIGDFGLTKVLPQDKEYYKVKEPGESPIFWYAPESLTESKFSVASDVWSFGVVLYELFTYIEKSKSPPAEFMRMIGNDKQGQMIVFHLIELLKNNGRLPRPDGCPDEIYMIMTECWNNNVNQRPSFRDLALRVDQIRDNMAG
row,Compound,JAK 2 (pKi)
1,C=CC(=O)N1CC(CCn2c(=O)ccc3cnc(Nc4ccc(N5CCN(S(=O)(=O)CC#N)CC5)cc4)nc32)C1 [Example 101],E (E represents a pKi value of 7 or below (Ki of 100 nM or above))
2,C=CC(=O)N1CC(CCn2c(=O)ccc3cnc(Nc4ccc(N5CCN(C(=O)[C@@H](C)O)CC5)cc4)nc32)C1 [Example 105],E (E represents a pKi value of 7 or below (Ki of 100 nM or above))
3,C=CC(=O)N1CC(CCn2c(=O)ccc3cnc(Nc4ccc(N5CCN(C(=O)[C@H](C)O)CC5)cc4)nc32)C1 [Example 106],E (E represents a pKi value of 7 or below (Ki of 100 nM or above))
4,C=CC(=O)N1CC(CCn2c(=O)ccc3cnc(Nc4cccc(N5CCN(C(=O)COC)CC5)c4)nc32)C1 [Example 108],E (E represents a pKi value of 7 or below (Ki of 100 nM or above))
5,C=CC(=O)N1CC(CCn2c(=O)ccc3cnc(Nc4ccc(N5CCN(C(=O)C(F)(F)F)CC5)cc4)nc32)C1 [Example 109],E (E represents a pKi value of 7 or below (Ki of 100 nM or above))
6,C=CC(=O)N1CC(CCn2c(=O)ccc3cnc(Nc4ccc(N5CCN(CCOCC)CC5)cc4)nc32)C1 [Example 117],E (E represents a pKi value of 7 or below (Ki of 100 nM or above))

# Biological target: JAK3 (Homo sapiens (Human), UniProt P52333)
# Experiment: Biochemical JAK3 kinase assay (LanthaScreen)
# Conditions: not given
# How it was run: as §1
# Sequence of JAK3 (P52333 whole entry): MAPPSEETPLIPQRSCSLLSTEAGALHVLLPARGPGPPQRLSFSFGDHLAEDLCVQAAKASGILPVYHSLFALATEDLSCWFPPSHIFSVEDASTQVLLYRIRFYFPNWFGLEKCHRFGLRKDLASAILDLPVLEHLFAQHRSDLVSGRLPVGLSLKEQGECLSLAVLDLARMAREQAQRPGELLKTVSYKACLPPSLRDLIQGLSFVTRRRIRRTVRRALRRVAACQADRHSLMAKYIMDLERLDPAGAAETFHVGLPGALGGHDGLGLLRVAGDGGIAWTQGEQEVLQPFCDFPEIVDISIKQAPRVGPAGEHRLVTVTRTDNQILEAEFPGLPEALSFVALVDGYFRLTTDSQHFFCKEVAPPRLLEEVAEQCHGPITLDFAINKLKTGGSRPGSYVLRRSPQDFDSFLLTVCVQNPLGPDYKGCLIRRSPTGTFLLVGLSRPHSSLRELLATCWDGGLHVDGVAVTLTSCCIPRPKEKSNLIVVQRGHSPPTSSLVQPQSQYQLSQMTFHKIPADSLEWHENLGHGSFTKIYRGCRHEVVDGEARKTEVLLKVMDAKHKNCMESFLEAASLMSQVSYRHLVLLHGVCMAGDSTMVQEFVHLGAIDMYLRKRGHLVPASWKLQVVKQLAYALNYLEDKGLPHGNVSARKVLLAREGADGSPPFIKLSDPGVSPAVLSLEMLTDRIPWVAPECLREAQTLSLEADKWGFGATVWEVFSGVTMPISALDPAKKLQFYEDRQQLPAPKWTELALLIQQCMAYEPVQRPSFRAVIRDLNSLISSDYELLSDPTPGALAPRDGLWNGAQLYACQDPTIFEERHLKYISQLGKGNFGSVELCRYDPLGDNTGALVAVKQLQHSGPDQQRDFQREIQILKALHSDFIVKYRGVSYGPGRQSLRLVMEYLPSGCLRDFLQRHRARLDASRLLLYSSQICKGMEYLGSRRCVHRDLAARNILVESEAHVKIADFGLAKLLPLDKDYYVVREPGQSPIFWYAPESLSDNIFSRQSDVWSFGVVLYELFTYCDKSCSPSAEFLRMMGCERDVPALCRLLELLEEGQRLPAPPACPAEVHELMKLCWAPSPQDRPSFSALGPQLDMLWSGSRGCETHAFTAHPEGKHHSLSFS
row,Compound,JAK 3 (pKi)
1,C=CC(=O)N1CC(CCn2c(=O)ccc3cnc(Nc4ccc(N5CCN(S(=O)(=O)CC#N)CC5)cc4)nc32)C1 [Example 101],A (A represents a pKi value≥10 (Ki≤0.1 nM))
2,C=CC(=O)N1CC(CCn2c(=O)ccc3cnc(Nc4ccc(N5CCN(C(=O)[C@@H](C)O)CC5)cc4)nc32)C1 [Example 105],A (A represents a pKi value≥10 (Ki≤0.1 nM))
3,C=CC(=O)N1CC(CCn2c(=O)ccc3cnc(Nc4ccc(N5CCN(C(=O)[C@H](C)O)CC5)cc4)nc32)C1 [Example 106],A (A represents a pKi value≥10 (Ki≤0.1 nM))
4,C=CC(=O)N1CC(CCn2c(=O)ccc3cnc(Nc4cccc(N5CCN(C(=O)COC)CC5)c4)nc32)C1 [Example 108],B (B represents pKi value between 9 and 10 (Ki between 1 nM and 0.1 nM))
5,C=CC(=O)N1CC(CCn2c(=O)ccc3cnc(Nc4ccc(N5CCN(C(=O)C(F)(F)F)CC5)cc4)nc32)C1 [Example 109],B (B represents pKi value between 9 and 10 (Ki between 1 nM and 0.1 nM))
6,C=CC(=O)N1CC(CCn2c(=O)ccc3cnc(Nc4ccc(N5CCN(CCOCC)CC5)cc4)nc32)C1 [Example 117],A (A represents a pKi value≥10 (Ki≤0.1 nM))

# Same assay, conditions: selectivity JAK3 over JAK1, difference of pKi
row,Compound,JAK3 (pKi)-JAK1 (pKi)
1,C=CC(=O)N1CC(CCn2c(=O)ccc3cnc(Nc4ccc(N5CCN(S(=O)(=O)CC#N)CC5)cc4)nc32)C1 [Example 101],A (A represents a value of 3 or above)
2,C=CC(=O)N1CC(CCn2c(=O)ccc3cnc(Nc4ccc(N5CCN(C(=O)[C@@H](C)O)CC5)cc4)nc32)C1 [Example 105],A (A represents a value of 3 or above)
3,C=CC(=O)N1CC(CCn2c(=O)ccc3cnc(Nc4ccc(N5CCN(C(=O)[C@H](C)O)CC5)cc4)nc32)C1 [Example 106],A (A represents a value of 3 or above)
4,C=CC(=O)N1CC(CCn2c(=O)ccc3cnc(Nc4cccc(N5CCN(C(=O)COC)CC5)c4)nc32)C1 [Example 108],A (A represents a value of 3 or above)
5,C=CC(=O)N1CC(CCn2c(=O)ccc3cnc(Nc4ccc(N5CCN(C(=O)C(F)(F)F)CC5)cc4)nc32)C1 [Example 109],B (B represents a value of 2.5 to 3)
6,C=CC(=O)N1CC(CCn2c(=O)ccc3cnc(Nc4ccc(N5CCN(CCOCC)CC5)cc4)nc32)C1 [Example 117],A (A represents a value of 3 or above)

# Biological target: Tyk2 (Homo sapiens (Human), UniProt P29597)
# Experiment: Biochemical Tyk2 kinase assay (LanthaScreen)
# Conditions: not given
# How it was run: as §1
# Sequence of Tyk2 (P29597 whole entry): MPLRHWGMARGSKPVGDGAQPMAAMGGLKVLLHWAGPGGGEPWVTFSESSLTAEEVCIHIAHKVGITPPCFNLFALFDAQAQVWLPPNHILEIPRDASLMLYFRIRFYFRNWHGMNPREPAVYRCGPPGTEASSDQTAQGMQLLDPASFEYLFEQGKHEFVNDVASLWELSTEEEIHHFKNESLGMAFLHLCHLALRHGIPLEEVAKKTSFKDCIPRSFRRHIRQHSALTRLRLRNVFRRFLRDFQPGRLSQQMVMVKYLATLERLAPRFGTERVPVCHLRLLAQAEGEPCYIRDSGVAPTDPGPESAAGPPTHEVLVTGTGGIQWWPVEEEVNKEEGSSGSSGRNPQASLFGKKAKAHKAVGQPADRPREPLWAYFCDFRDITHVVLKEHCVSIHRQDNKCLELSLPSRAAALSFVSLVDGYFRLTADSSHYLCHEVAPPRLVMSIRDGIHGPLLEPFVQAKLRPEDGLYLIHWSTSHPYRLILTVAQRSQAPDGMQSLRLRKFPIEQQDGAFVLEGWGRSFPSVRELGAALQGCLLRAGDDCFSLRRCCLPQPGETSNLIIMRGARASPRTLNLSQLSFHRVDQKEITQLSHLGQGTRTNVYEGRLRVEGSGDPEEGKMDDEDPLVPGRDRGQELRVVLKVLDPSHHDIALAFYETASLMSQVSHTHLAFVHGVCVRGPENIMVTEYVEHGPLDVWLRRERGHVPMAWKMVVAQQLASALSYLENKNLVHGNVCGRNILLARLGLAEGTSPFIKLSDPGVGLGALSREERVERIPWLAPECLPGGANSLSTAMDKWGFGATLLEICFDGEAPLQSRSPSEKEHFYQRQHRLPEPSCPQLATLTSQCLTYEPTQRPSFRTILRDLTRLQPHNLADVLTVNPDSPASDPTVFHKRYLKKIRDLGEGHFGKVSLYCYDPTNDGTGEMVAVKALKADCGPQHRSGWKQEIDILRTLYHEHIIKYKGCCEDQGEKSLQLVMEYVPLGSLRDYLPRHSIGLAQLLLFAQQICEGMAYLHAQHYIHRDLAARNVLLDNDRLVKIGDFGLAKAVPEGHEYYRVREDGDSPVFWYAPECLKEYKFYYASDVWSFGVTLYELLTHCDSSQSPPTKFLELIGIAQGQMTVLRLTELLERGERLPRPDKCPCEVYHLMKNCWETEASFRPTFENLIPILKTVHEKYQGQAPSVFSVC
row,Compound,Tyk 2 (pKi)
1,C=CC(=O)N1CC(CCn2c(=O)ccc3cnc(Nc4ccc(N5CCN(S(=O)(=O)CC#N)CC5)cc4)nc32)C1 [Example 101],E (E represents a pKi value of 7 or below (Ki of 100 nM or above))
2,C=CC(=O)N1CC(CCn2c(=O)ccc3cnc(Nc4ccc(N5CCN(C(=O)[C@@H](C)O)CC5)cc4)nc32)C1 [Example 105],E (E represents a pKi value of 7 or below (Ki of 100 nM or above))
3,C=CC(=O)N1CC(CCn2c(=O)ccc3cnc(Nc4ccc(N5CCN(C(=O)[C@H](C)O)CC5)cc4)nc32)C1 [Example 106],E (E represents a pKi value of 7 or below (Ki of 100 nM or above))
4,C=CC(=O)N1CC(CCn2c(=O)ccc3cnc(Nc4cccc(N5CCN(C(=O)COC)CC5)c4)nc32)C1 [Example 108],E (E represents a pKi value of 7 or below (Ki of 100 nM or above))
5,C=CC(=O)N1CC(CCn2c(=O)ccc3cnc(Nc4ccc(N5CCN(C(=O)C(F)(F)F)CC5)cc4)nc32)C1 [Example 109],E (E represents a pKi value of 7 or below (Ki of 100 nM or above))
6,C=CC(=O)N1CC(CCn2c(=O)ccc3cnc(Nc4ccc(N5CCN(CCOCC)CC5)cc4)nc32)C1 [Example 117],E (E represents a pKi value of 7 or below (Ki of 100 nM or above))

# Tested on: IL-2 stimulated STAT5 phosphorylation in Tall-1 human T cell line (JAK3)
# Experiment: Cellular JAK3 potency assay: inhibition of IL-2 stimulated pSTAT5 in Tall-1 T cells
# Assay type: cell-based
# Conditions: IL-2 stimulated pSTAT5, Tall-1 T cells
# How it was run: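 AlphaLISA SureFire Ultra measures STAT5 Tyr694/699 phosphorylation in lysed Tall-1 human T cells. Cells were exposed to compound for 1 h at 37 °C before a 30 min IL-2 challenge (300 ng/ml final). Values are pIC50 means with standard deviation from signal-versus-concentration curves.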
row,Compound,Tall-1 (pIC50)
1,C=CC(=O)N1CC(CCn2c(=O)ccc3cnc(Nc4ccc(N5CCN(S(=O)(=O)CC#N)CC5)cc4)nc32)C1 [Example 101],B (B represents a pC50 value between 6.7 (included) and 7.5 (IC50 between 200 nM and 32 nM))
2,C=CC(=O)N1CC(CCn2c(=O)ccc3cnc(Nc4ccc(N5CCN(C(=O)[C@@H](C)O)CC5)cc4)nc32)C1 [Example 105],B (B represents a pC50 value between 6.7 (included) and 7.5 (IC50 between 200 nM and 32 nM))
3,C=CC(=O)N1CC(CCn2c(=O)ccc3cnc(Nc4ccc(N5CCN(C(=O)[C@H](C)O)CC5)cc4)nc32)C1 [Example 106],B (B represents a pC50 value between 6.7 (included) and 7.5 (IC50 between 200 nM and 32 nM))
4,C=CC(=O)N1CC(CCn2c(=O)ccc3cnc(Nc4cccc(N5CCN(C(=O)COC)CC5)c4)nc32)C1 [Example 108],B (B represents a pC50 value between 6.7 (included) and 7.5 (IC50 between 200 nM and 32 nM))
5,C=CC(=O)N1CC(CCn2c(=O)ccc3cnc(Nc4ccc(N5CCN(C(=O)C(F)(F)F)CC5)cc4)nc32)C1 [Example 109],B (B represents a pC50 value between 6.7 (included) and 7.5 (IC50 between 200 nM and 32 nM))
6,C=CC(=O)N1CC(CCn2c(=O)ccc3cnc(Nc4ccc(N5CCN(CCOCC)CC5)cc4)nc32)C1 [Example 117],A (A represents a pIC50 value≥7.5 (IC50≤32 nM))

# Tested on: Caco-2 cell monolayers
# Experiment: Caco-2 permeation assay
# Assay type: in vitro ADME
# Conditions: 5 μM, A-B direction, with Verapamil (25 μM)
# How it was run: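 Passive A-to-B permeability with P-gp inhibited by verapamil (25 μM); compound at 5 μM, n=2. Both compartments sampled at t0 and t120 and quantified by LC-MS/MS, giving apparent permeability in cm/sec from flux, area and concentration.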
row,Compound,Caco Kp
1,C=CC(=O)N1CC(CCn2c(=O)ccc3cnc(Nc4ccc(N5CCN(S(=O)(=O)CC#N)CC5)cc4)nc32)C1 [Example 101],A (A represents a value below 5×10^−6 cm/sec)
2,C=CC(=O)N1CC(CCn2c(=O)ccc3cnc(Nc4ccc(N5CCN(C(=O)[C@@H](C)O)CC5)cc4)nc32)C1 [Example 105],A (A represents a value below 5×10^−6 cm/sec)
3,C=CC(=O)N1CC(CCn2c(=O)ccc3cnc(Nc4ccc(N5CCN(C(=O)[C@H](C)O)CC5)cc4)nc32)C1 [Example 106],A (A represents a value below 5×10^−6 cm/sec)
4,C=CC(=O)N1CC(CCn2c(=O)ccc3cnc(Nc4cccc(N5CCN(C(=O)COC)CC5)c4)nc32)C1 [Example 108],A (A represents a value below 5×10^−6 cm/sec)
5,C=CC(=O)N1CC(CCn2c(=O)ccc3cnc(Nc4ccc(N5CCN(C(=O)C(F)(F)F)CC5)cc4)nc32)C1 [Example 109],C (C represents a value between 10×10^−6 and 30×10^−6 cm/sec)
6,C=CC(=O)N1CC(CCn2c(=O)ccc3cnc(Nc4ccc(N5CCN(CCOCC)CC5)cc4)nc32)C1 [Example 117],C (C represents a value between 10×10^−6 and 30×10^−6 cm/sec)
